pIC50, pKi: −log10 of the molar value.

Chain of Beta-3 adrenergic receptor (P13945 whole entry): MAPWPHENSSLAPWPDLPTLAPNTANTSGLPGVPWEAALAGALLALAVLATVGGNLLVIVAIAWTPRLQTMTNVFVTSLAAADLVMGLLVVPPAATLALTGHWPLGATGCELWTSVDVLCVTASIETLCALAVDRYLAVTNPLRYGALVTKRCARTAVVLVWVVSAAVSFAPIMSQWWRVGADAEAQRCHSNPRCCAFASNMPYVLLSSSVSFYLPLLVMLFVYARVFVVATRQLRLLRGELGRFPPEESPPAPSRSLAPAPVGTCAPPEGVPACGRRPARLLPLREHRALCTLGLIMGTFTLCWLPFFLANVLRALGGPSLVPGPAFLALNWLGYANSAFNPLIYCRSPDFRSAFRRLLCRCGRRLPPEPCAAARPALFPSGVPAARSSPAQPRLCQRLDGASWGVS
Chain of Cytochrome P450 2D6 (P10635 whole entry): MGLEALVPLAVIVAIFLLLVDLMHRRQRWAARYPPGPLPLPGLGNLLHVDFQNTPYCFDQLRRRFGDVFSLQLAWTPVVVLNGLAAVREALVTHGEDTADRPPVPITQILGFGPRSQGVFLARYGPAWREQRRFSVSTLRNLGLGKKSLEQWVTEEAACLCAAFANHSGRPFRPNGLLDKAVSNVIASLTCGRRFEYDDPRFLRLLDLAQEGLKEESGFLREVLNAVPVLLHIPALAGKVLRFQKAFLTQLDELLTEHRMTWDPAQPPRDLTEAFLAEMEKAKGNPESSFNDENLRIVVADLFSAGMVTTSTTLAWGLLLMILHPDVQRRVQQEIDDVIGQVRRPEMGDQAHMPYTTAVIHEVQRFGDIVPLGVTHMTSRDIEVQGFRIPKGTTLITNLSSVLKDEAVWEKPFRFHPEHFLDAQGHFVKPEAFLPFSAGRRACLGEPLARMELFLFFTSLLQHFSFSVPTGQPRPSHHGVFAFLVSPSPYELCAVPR

The target in one data set is Cytochrome P450 2E1 (Homo sapiens, UniProt P05181). Further: in other assays of this panel Not Active means under 50% inhibition at 10 µM.
Chain of Cytochrome P450 2E1 (P05181 whole entry): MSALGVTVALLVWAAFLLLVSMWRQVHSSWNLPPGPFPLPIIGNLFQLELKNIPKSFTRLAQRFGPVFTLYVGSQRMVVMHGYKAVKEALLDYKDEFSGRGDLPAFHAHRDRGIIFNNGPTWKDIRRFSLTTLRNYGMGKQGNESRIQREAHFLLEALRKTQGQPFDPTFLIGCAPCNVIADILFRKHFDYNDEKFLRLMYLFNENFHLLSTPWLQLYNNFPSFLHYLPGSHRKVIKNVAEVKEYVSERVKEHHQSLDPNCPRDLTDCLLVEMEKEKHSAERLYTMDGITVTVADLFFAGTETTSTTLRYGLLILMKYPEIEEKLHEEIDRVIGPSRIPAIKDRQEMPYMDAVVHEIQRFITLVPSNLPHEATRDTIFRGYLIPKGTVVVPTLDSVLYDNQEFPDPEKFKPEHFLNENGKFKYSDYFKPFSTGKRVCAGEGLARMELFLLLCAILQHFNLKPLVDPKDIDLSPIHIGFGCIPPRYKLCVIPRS
Assay: not given
Conditions: bti-tn-5b1-4.
In the case of CISPLATIN, the IC50 result is recorded as “Not Active” and the Ki result was “Not Active”.
In the case of `CN1CCC[C@H]1c1cccnc1` [NICOTINE], the IC50 result is “Not Active” and the Ki result is listed as “Not Active”.
In the case of `O=C1OC2(c3ccc(O)cc3Oc3cc(O)ccc32)c2ccccc21` [FLUORESCEIN], the IC50 entry was “Not Active” and the Ki entry is “Not Active”.

In another data set the target is 5-hydroxytryptamine receptor 6 (Homo sapiens, UniProt P50406). Further: in other assays of this panel Not Active means under 50% inhibition at 10 µM.
Chain of 5-hydroxytryptamine receptor 6 (P50406 whole entry): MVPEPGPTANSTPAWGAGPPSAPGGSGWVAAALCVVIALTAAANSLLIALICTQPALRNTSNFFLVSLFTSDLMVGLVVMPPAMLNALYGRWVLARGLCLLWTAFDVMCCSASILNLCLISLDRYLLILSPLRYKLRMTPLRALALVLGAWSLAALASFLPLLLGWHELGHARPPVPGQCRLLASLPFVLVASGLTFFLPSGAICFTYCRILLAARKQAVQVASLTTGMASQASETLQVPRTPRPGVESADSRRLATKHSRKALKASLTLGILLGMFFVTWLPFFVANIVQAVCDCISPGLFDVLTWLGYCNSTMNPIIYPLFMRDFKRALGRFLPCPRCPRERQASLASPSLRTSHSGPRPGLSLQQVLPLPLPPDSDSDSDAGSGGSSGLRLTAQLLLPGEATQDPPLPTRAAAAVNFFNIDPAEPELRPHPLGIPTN
Assay: not given
The data set is classed as cell membranes, HeLa, Membrane. The settings on record: hela.
Turning to CISPLATIN, the IC50 entry is “Not Active” and the Ki result is “Not Active”.
With `CN1CCC[C@H]1c1cccnc1` [NICOTINE], the IC50 entry is recorded as “Not Active”.
Consider `O=C1OC2(c3ccc(O)cc3Oc3cc(O)ccc32)c2ccccc21` [FLUORESCEIN], for which the IC50 result is on record as “Not Active”.

For another data set, the target named is 5-hydroxytryptamine receptor 2B (Homo sapiens, UniProt P41595). Further: in other assays of this panel Not Active means under 50% inhibition at 10 µM.
Chain of 5-hydroxytryptamine receptor 2B (P41595 whole entry): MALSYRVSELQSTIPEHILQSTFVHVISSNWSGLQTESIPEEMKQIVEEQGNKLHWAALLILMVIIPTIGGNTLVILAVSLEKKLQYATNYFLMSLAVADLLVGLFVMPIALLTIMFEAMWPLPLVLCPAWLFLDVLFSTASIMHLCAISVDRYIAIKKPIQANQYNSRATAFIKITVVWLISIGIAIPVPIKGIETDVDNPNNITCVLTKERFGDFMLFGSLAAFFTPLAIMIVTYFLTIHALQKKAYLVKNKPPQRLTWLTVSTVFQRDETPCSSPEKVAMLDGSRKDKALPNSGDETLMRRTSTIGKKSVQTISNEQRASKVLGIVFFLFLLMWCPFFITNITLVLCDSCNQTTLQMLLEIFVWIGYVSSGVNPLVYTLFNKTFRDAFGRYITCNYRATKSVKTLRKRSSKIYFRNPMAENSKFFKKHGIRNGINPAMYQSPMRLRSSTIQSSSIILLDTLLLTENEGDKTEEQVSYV
Assay: not given
Conditions: cho-k1. The data set is classed as cell membranes, CHO-K1, Membrane.
Regarding CISPLATIN, the IC50 entry is listed as “Not Active” and the Ki entry is “Not Active”.
For `CN1CCC[C@H]1c1cccnc1` [NICOTINE], the IC50 entry was “Not Active”.
As to `O=C1OC2(c3ccc(O)cc3Oc3cc(O)ccc32)c2ccccc21` [FLUORESCEIN], the IC50 result is given as “Not Active”.

The next data set has as its target Cytochrome P450 2D6 (Homo sapiens, UniProt P10635). Further: in other assays of this panel Not Active means under 50% inhibition at 10 µM.
Assay: not given
Conditions: bti-tn-5b1-4.
For the compound CISPLATIN, the IC50 entry is listed as “Not Active” and the Ki entry is “Not Active”.
Regarding `CN1CCC[C@H]1c1cccnc1` [NICOTINE], the IC50 entry was “Not Active” and the Ki result is given as “Not Active”.
`O=C1OC2(c3ccc(O)cc3Oc3cc(O)ccc32)c2ccccc21` [FLUORESCEIN]: the IC50 result is on record as “Not Active” and the Ki result was “Not Active”.

The next data set addresses T1, C-X-C chemokine receptor type 2 (Homo sapiens, UniProt P25025).
T1 sequence (P25025 whole entry): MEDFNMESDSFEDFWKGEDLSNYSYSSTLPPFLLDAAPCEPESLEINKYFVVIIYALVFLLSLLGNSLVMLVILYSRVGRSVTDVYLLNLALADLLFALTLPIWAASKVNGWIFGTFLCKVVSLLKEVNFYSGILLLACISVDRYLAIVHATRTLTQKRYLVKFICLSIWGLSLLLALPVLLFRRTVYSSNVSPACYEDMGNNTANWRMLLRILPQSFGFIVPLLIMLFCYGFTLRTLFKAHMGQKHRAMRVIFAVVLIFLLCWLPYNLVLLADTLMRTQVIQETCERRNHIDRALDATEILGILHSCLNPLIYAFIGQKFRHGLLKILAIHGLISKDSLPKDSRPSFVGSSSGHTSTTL
Assay: not given
The data set is classed as cell membranes, Membrane. The settings on record: cho-k1.
For `CN1CCC[C@H]1c1cccnc1` [NICOTINE], the IC50 result was “Not Active”.
Still for that read-out and setting: in the case of `O=C1OC2(c3ccc(O)cc3Oc3cc(O)ccc32)c2ccccc21` [FLUORESCEIN] it was “Not Active”.

Still in this data set, the particulars now being: cho-k1; read-out: IC50.
In the case of CISPLATIN, the negative-log IC50 (pIC50) was 4.87.

The data set is the same for the next values; noted with them: cho-k1; read-out: Ki.
On to CISPLATIN, for which the pKi was 5.02.

The target in another data set is T2, Polyunsaturated fatty acid lipoxygenase ALOX15 (Oryctolagus cuniculus, UniProt P12530).
T2 sequence (P12530 whole entry): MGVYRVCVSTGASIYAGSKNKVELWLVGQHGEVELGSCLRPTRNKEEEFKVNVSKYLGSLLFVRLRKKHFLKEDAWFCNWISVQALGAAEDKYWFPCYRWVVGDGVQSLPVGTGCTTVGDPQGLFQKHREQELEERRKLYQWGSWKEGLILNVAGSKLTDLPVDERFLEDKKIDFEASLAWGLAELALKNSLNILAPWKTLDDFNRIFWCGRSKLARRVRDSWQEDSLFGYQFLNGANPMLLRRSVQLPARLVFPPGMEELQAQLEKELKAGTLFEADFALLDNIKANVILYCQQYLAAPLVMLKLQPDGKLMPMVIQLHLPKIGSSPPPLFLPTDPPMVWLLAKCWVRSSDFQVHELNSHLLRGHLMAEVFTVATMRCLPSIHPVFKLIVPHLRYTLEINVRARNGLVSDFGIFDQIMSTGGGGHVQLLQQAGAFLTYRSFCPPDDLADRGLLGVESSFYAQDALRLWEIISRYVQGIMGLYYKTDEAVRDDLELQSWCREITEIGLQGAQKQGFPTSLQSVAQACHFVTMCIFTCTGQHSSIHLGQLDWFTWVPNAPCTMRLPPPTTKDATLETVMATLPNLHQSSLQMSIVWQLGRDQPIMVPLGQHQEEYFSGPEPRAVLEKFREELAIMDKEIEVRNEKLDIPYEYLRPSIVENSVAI
Nature of the data set: biochemical. The settings on record: reticulocytes. The data set is classed as tissue-based, Reticulocytes.
Consider CISPLATIN, for which the IC50 entry was “Not Active” and the Ki result is “Not Active”.
As for `CN1CCC[C@H]1c1cccnc1` [NICOTINE], the IC50 result is “Not Active”.
As to `O=C1OC2(c3ccc(O)cc3Oc3cc(O)ccc32)c2ccccc21` [FLUORESCEIN], the IC50 entry was “Not Active”.

In the next data set the target is D(1A) dopamine receptor (Homo sapiens, UniProt P21728). Nature of the data set: DRUGMATRIX: Dopamine D1 radioligand binding (ligand: [3H] SCH-23390). Conditions: cho; Not Active = under 50% inhibition at 10 µM. The data set is classed as cell membranes, CHO, Membrane.
Chain of D(1A) dopamine receptor (P21728 whole entry): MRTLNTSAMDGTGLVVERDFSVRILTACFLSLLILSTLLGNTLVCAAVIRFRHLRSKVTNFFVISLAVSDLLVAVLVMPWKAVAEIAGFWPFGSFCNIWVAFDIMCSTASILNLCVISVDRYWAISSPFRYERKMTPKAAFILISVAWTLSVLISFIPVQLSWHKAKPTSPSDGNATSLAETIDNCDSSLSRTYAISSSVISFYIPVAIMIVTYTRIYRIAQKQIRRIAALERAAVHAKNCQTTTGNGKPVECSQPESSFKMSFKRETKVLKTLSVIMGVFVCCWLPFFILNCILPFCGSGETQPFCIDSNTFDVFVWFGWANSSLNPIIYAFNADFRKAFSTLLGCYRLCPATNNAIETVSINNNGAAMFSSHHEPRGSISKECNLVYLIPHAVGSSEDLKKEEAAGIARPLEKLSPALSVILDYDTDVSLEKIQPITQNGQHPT
As for CISPLATIN, the IC50 result is reported as “Not Active” and the Ki entry was “Not Active”.
`CN1CCC[C@H]1c1cccnc1` [NICOTINE]: the IC50 result is reported as “Not Active”.
As for `O=C1OC2(c3ccc(O)cc3Oc3cc(O)ccc32)c2ccccc21` [FLUORESCEIN], the IC50 result is “Not Active”.

The target in the next data set is T3, Adenosine receptor A3 (Homo sapiens, UniProt P0DMS8).
T3 sequence (P0DMS8 whole entry): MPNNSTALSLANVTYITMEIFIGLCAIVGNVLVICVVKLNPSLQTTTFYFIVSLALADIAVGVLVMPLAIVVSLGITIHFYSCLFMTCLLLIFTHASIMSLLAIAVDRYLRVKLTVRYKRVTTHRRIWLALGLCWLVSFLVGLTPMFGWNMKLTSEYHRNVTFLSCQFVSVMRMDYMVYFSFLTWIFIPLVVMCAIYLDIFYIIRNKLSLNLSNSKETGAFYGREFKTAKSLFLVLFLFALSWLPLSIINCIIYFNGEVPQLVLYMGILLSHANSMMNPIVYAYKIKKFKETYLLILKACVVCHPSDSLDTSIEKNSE
Assay: not given
The data set is classed as cell membranes, CHO-K1, Membrane. Conditions: cho-k1.
As to `CN1CCC[C@H]1c1cccnc1` [NICOTINE], the IC50 entry is “Not Active”.
On the same count and under the same terms, in the case of `O=C1OC2(c3ccc(O)cc3Oc3cc(O)ccc32)c2ccccc21` [FLUORESCEIN] it was “Not Active”.

Staying with this data set, now noted: cho-k1; read-out: IC50.
As for CISPLATIN, the pIC50 was 5.37.

The same data set, now with this note: cho-k1; read-out: Ki.
Regarding CISPLATIN, the pKi is 5.62.

In another data set the target is Histamine H2 receptor (Homo sapiens, UniProt P25021). Further: in other assays of this panel Not Active means under 50% inhibition at 10 µM.
Chain of Histamine H2 receptor (P25021 whole entry): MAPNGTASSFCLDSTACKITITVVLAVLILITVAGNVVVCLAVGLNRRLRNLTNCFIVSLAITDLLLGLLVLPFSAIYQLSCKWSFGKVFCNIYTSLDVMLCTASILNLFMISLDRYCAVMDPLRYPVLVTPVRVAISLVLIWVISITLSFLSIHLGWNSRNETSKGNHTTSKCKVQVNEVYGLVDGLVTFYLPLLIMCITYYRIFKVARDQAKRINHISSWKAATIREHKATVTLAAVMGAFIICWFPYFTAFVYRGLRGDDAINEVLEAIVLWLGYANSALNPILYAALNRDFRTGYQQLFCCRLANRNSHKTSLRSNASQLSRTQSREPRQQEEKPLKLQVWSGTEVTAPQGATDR
Assay: not given
The data set is classed as cell membranes, CHO-K1, Membrane. Conditions: cho-k1.
As to CISPLATIN, the IC50 result is given as “Not Active” and the Ki entry is listed as “Not Active”.
Consider `CN1CCC[C@H]1c1cccnc1` [NICOTINE], for which the IC50 entry was “Not Active”.
Same read-out and setting: next, `O=C1OC2(c3ccc(O)cc3Oc3cc(O)ccc32)c2ccccc21` [FLUORESCEIN]: “Not Active”.

For another data set, the target named is T4, Alpha-1B adrenergic receptor (Rattus norvegicus, UniProt P15823).
T4 sequence (P15823 whole entry): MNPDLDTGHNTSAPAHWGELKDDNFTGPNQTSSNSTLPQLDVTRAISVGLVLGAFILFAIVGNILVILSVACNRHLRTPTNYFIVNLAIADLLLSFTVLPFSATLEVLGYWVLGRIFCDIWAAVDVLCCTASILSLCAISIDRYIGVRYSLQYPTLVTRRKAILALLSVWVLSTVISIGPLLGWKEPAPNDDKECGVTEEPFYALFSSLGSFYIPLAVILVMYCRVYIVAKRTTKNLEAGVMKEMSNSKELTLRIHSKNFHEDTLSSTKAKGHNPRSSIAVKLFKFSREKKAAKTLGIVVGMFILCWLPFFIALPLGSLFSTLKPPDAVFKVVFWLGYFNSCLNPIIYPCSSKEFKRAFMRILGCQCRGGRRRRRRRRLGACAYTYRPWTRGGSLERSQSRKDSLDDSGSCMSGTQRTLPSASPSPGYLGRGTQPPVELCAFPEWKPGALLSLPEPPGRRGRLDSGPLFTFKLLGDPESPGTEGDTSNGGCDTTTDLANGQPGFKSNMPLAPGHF
Nature of the data set: DRUGMATRIX: Alpha-1B adrenergic receptor radioligand binding (ligand: prazosin). The data set is classed as cell membranes, Wistar, Liver, Membrane. Conditions: Not Active = under 50% inhibition at 10 µM.
Take CISPLATIN: the IC50 entry is “Not Active” and the Ki entry is recorded as “Not Active”.
Turning to `CN1CCC[C@H]1c1cccnc1` [NICOTINE], the IC50 entry was “Not Active”.
On the same count and under the same terms, in the case of `O=C1OC2(c3ccc(O)cc3Oc3cc(O)ccc32)c2ccccc21` [FLUORESCEIN] it was “Not Active”.

Another data set has as its target Beta-3 adrenergic receptor (Homo sapiens, UniProt P13945). Nature of the data set: DRUGMATRIX: Adrenergic beta3 radioligand binding (ligand: [125I] Cyanopindolol). The data set is classed as cell membranes, HEK293, Membrane. Conditions: hek293; Not Active = under 50% inhibition at 10 µM.
Take CISPLATIN: the IC50 entry is reported as “Not Active” and the Ki result was “Not Active”.
Turning to `CN1CCC[C@H]1c1cccnc1` [NICOTINE], the IC50 result is listed as “Not Active”.
The same measure, in the same setting: next, `O=C1OC2(c3ccc(O)cc3Oc3cc(O)ccc32)c2ccccc21` [FLUORESCEIN]: “Not Active”.

Test system in a further data set: not listed separately
Nature of the data set: DRUGMATRIX: GABAA, Chloride Channel, TBOB radioligand binding (ligand: [3H] TBOB). The data set is classed as cell membranes, Rattus norvegicus, Wistar, Cerebral cortex, Membrane. The settings on record: Not Active = under 50% inhibition at 10 µM.
In the case of CISPLATIN, the IC50 result is “Not Active” and the Ki entry is recorded as “Not Active”.
For `CN1CCC[C@H]1c1cccnc1` [NICOTINE], the IC50 entry was “Not Active” and the Ki entry is “Not Active”.
In the case of `O=C1OC2(c3ccc(O)cc3Oc3cc(O)ccc32)c2ccccc21` [FLUORESCEIN], the IC50 entry is “Not Active” and the Ki result was “Not Active”.

Test system in a further data set: not listed separately
Nature of the data set: DRUGMATRIX: Calcium Channel Type L, Benzothiazepine radioligand binding (ligand: [3H] Diltiazem). Conditions: Not Active = under 50% inhibition at 10 µM. The data set is classed as cell membranes, Rattus norvegicus, Wistar, Brain, Membrane.
In the case of CISPLATIN, the IC50 entry is given as “Not Active” and the Ki result is recorded as “Not Active”.
Take `CN1CCC[C@H]1c1cccnc1` [NICOTINE]: the IC50 result is “Not Active” and the Ki result is “Not Active”.
Consider `O=C1OC2(c3ccc(O)cc3Oc3cc(O)ccc32)c2ccccc21` [FLUORESCEIN], for which the IC50 entry is “Not Active” and the Ki entry is “Not Active”.
